{
  "source": "PubChem BioAssay AID2060483",
  "about": "(Molecular Pharmacology Branch, DTP, NCI, 2025)",
  "test_system": "K24384-001-R-PDC complex spheroids, viability",
  "assay": "Anticancer human tumor K24384-001-R-PDC patient-derived pancreatic adenocarcinoma cell line growth inhibition [GQUAD]",
  "conditions": "for pIC50: curve of first compound; for viability, T/C: stronger effect = lower value",
  "how_it_was_run": "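Viability of tumor cells grown as complex spheroids with endothelial and stromal cells, exposed to drug combinations. Top concentration at or near clinical Cmax (else 10 microM), diluted in half-log increments.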",
  "key": {"[1]": {"conditions": "second compound 0.0316 µM, first compound 0.000999 µM"}, "[2]": {"conditions": "second compound 0.0316 µM, first compound 0.00316 µM"}, "[3]": {"conditions": "second compound 0.0316 µM, first compound 0.00999 µM"}, "[4]": {"conditions": "second compound 0.0316 µM, first compound 0.0316 µM"}, "[5]": {"conditions": "second compound 0.0316 µM, first compound 0.0999 µM"}, "[6]": {"conditions": "second compound 0.0316 µM, first compound 0.316 µM"}, "[7]": {"conditions": "second compound 0.1 µM, first compound 0.000999 µM"}, "[8]": {"conditions": "second compound 0.1 µM, first compound 0.00316 µM"}, "[9]": {"conditions": "second compound 0.1 µM, first compound 0.00999 µM"}, "[10]": {"conditions": "second compound 0.1 µM, first compound 0.0316 µM"}, "[11]": {"conditions": "second compound 0.1 µM, first compound 0.0999 µM"}, "[12]": {"conditions": "second compound 0.1 µM, first compound 0.316 µM"}, "[13]": {"conditions": "second compound 0.316 µM, first compound 0.000999 µM"}, "[14]": {"conditions": "second compound 0.316 µM, first compound 0.00316 µM"}, "[15]": {"conditions": "second compound 0.316 µM, first compound 0.00999 µM"}, "[16]": {"conditions": "second compound 0.316 µM, first compound 0.0316 µM"}, "[17]": {"conditions": "second compound 0.316 µM, first compound 0.0999 µM"}, "[18]": {"conditions": "second compound 0.316 µM, first compound 0.316 µM"}, "[19]": {"conditions": "second compound 1 µM, first compound 0.000999 µM"}, "[20]": {"conditions": "second compound 1 µM, first compound 0.00316 µM"}, "[21]": {"conditions": "second compound 1 µM, first compound 0.00999 µM"}, "[22]": {"conditions": "second compound 1 µM, first compound 0.0316 µM"}, "[23]": {"conditions": "second compound 1 µM, first compound 0.0999 µM"}, "[24]": {"conditions": "second compound 1 µM, first compound 0.316 µM"}, "[25]": {"conditions": "second compound 3.16 µM, first compound 0.000999 µM"}, "[26]": {"conditions": "second compound 3.16 µM, first compound 0.00316 µM"}, "[27]": {"conditions": "second compound 3.16 µM, first compound 0.00999 µM"}, "[28]": {"conditions": "second compound 3.16 µM, first compound 0.0316 µM"}, "[29]": {"conditions": "second compound 3.16 µM, first compound 0.0999 µM"}, "[30]": {"conditions": "second compound 3.16 µM, first compound 0.316 µM"}, "[31]": {"conditions": "second compound 10 µM, first compound 0.000999 µM"}, "[32]": {"conditions": "second compound 10 µM, first compound 0.00316 µM"}, "[33]": {"conditions": "second compound 10 µM, first compound 0.00999 µM"}, "[34]": {"conditions": "second compound 10 µM, first compound 0.0316 µM"}, "[35]": {"conditions": "second compound 10 µM, first compound 0.0999 µM"}, "[36]": {"conditions": "second compound 10 µM, first compound 0.316 µM"}},
  "note": "pIC50: −log10 of the molar value.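 Note: spheroids exposed to compounds for seven days.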",
  "data": [
    {"smiles": "CCc1c2c(nc3ccc(O)cc13)-c1cc3c(c(=O)n1C2)COC(=O)[C@]3(O)CC", "note": "+ Cc1[nH]c2ccc(F)cc2c1-c1nc2c3cccnc3c3ncccc3c2[nH]1", "values": [
      {"measurement": "pIC50", "setting": "second compound 0.0316 µM", "result": 8.03},
      {"measurement": "pIC50", "setting": "second compound 0.1 µM", "result": 7.94},
      {"measurement": "pIC50", "setting": "second compound 0.316 µM", "result": 8.03},
      {"measurement": "pIC50", "setting": "second compound 1 µM", "result": 7.93},
      {"measurement": "pIC50", "setting": "second compound 3.16 µM", "result": 8.22},
      {"measurement": "pIC50", "setting": "second compound 10 µM", "result": 8.40},
      {"measurement": "viability, T/C", "setting": "[1]", "result": 96.3, "unit": "%"},
      {"measurement": "viability, T/C", "setting": "[2]", "result": 62.2, "unit": "%"},
      {"measurement": "viability, T/C", "setting": "[3]", "result": 53.5, "unit": "%"},
      {"measurement": "viability, T/C", "setting": "[4]", "result": 38.9, "unit": "%"},
      {"measurement": "viability, T/C", "setting": "[5]", "result": 29.3, "unit": "%"},
      {"measurement": "viability, T/C", "setting": "[6]", "result": 27.2, "unit": "%"},
      {"measurement": "viability, T/C", "setting": "[7]", "result": 79.8, "unit": "%"},
      {"measurement": "viability, T/C", "setting": "[8]", "result": 72.7, "unit": "%"},
      {"measurement": "viability, T/C", "setting": "[9]", "result": 51.5, "unit": "%"},
      {"measurement": "viability, T/C", "setting": "[10]", "result": 33.1, "unit": "%"},
      {"measurement": "viability, T/C", "setting": "[11]", "result": 31.3, "unit": "%"},
      {"measurement": "viability, T/C", "setting": "[12]", "result": 21.4, "unit": "%"},
      {"measurement": "viability, T/C", "setting": "[13]", "result": 72, "unit": "%"},
      {"measurement": "viability, T/C", "setting": "[14]", "result": 61.3, "unit": "%"},
      {"measurement": "viability, T/C", "setting": "[15]", "result": 47.5, "unit": "%"},
      {"measurement": "viability, T/C", "setting": "[16]", "result": 41.8, "unit": "%"},
      {"measurement": "viability, T/C", "setting": "[17]", "result": 28.3, "unit": "%"},
      {"measurement": "viability, T/C", "setting": "[18]", "result": 23.7, "unit": "%"},
      {"measurement": "viability, T/C", "setting": "[19]", "result": 70.6, "unit": "%"},
      {"measurement": "viability, T/C", "setting": "[20]", "result": 57.1, "unit": "%"},
      {"measurement": "viability, T/C", "setting": "[21]", "result": 51.5, "unit": "%"},
      {"measurement": "viability, T/C", "setting": "[22]", "result": 42.2, "unit": "%"},
      {"measurement": "viability, T/C", "setting": "[23]", "result": 39.9, "unit": "%"},
      {"measurement": "viability, T/C", "setting": "[24]", "result": 26.8, "unit": "%"},
      {"measurement": "viability, T/C", "setting": "[25]", "result": 65, "unit": "%"},
      {"measurement": "viability, T/C", "setting": "[26]", "result": 55.5, "unit": "%"},
      {"measurement": "viability, T/C", "setting": "[27]", "result": 41.3, "unit": "%"},
      {"measurement": "viability, T/C", "setting": "[28]", "result": 38.1, "unit": "%"},
      {"measurement": "viability, T/C", "setting": "[29]", "result": 30.8, "unit": "%"},
      {"measurement": "viability, T/C", "setting": "[30]", "result": 13.7, "unit": "%"},
      {"measurement": "viability, T/C", "setting": "[31]", "result": 60.4, "unit": "%"},
      {"measurement": "viability, T/C", "setting": "[32]", "result": 48.9, "unit": "%"},
      {"measurement": "viability, T/C", "setting": "[33]", "result": 43.8, "unit": "%"},
      {"measurement": "viability, T/C", "setting": "[34]", "result": 28.4, "unit": "%"},
      {"measurement": "viability, T/C", "setting": "[35]", "result": 15.1, "unit": "%"},
      {"measurement": "viability, T/C", "setting": "[36]", "result": 11, "unit": "%"}
    ]},
    {"smiles": "CC[C@@]1(O)C(=O)OCc2c1cc1n(c2=O)Cc2cc3c(CN(C)C)c(O)ccc3nc2-1", "note": "+ CN(C)c1ccc(Nc2c3ccc(NC(=O)CCN4CCCC4)cc3nc3cc(NC(=O)CCN4CCCC4)ccc23)cc1", "values": [
      {"measurement": "pIC50", "setting": "second compound 0.0316 µM", "result": 7.05},
      {"measurement": "pIC50", "setting": "second compound 0.1 µM", "result": 7.02},
      {"measurement": "pIC50", "setting": "second compound 0.316 µM", "result": 6.57},
      {"measurement": "pIC50", "setting": "second compound 1 µM", "result": 6.90},
      {"measurement": "pIC50", "setting": "second compound 3.16 µM", "result": 6.82},
      {"measurement": "pIC50", "setting": "second compound 10 µM", "result": 6.81},
      {"measurement": "viability, T/C", "setting": "[1]", "result": 102, "unit": "%"},
      {"measurement": "viability, T/C", "setting": "[2]", "result": 101, "unit": "%"},
      {"measurement": "viability, T/C", "setting": "[3]", "result": 101, "unit": "%"},
      {"measurement": "viability, T/C", "setting": "[4]", "result": 77.5, "unit": "%"},
      {"measurement": "viability, T/C", "setting": "[5]", "result": 47.8, "unit": "%"},
      {"measurement": "viability, T/C", "setting": "[6]", "result": 42.5, "unit": "%"},
      {"measurement": "viability, T/C", "setting": "[7]", "result": 99.8, "unit": "%"},
      {"measurement": "viability, T/C", "setting": "[8]", "result": 96.7, "unit": "%"},
      {"measurement": "viability, T/C", "setting": "[9]", "result": 103, "unit": "%"},
      {"measurement": "viability, T/C", "setting": "[10]", "result": 74.4, "unit": "%"},
      {"measurement": "viability, T/C", "setting": "[11]", "result": 51.8, "unit": "%"},
      {"measurement": "viability, T/C", "setting": "[12]", "result": 38.8, "unit": "%"},
      {"measurement": "viability, T/C", "setting": "[13]", "result": 96.9, "unit": "%"},
      {"measurement": "viability, T/C", "setting": "[14]", "result": 99.6, "unit": "%"},
      {"measurement": "viability, T/C", "setting": "[15]", "result": 89.1, "unit": "%"},
      {"measurement": "viability, T/C", "setting": "[16]", "result": 89.9, "unit": "%"},
      {"measurement": "viability, T/C", "setting": "[17]", "result": 55.5, "unit": "%"},
      {"measurement": "viability, T/C", "setting": "[18]", "result": 49.2, "unit": "%"},
      {"measurement": "viability, T/C", "setting": "[19]", "result": 99.8, "unit": "%"},
      {"measurement": "viability, T/C", "setting": "[20]", "result": 103, "unit": "%"},
      {"measurement": "viability, T/C", "setting": "[21]", "result": 96, "unit": "%"},
      {"measurement": "viability, T/C", "setting": "[22]", "result": 82.4, "unit": "%"},
      {"measurement": "viability, T/C", "setting": "[23]", "result": 52.4, "unit": "%"},
      {"measurement": "viability, T/C", "setting": "[24]", "result": 39.3, "unit": "%"},
      {"measurement": "viability, T/C", "setting": "[25]", "result": 102, "unit": "%"},
      {"measurement": "viability, T/C", "setting": "[26]", "result": 90.7, "unit": "%"},
      {"measurement": "viability, T/C", "setting": "[27]", "result": 88.5, "unit": "%"},
      {"measurement": "viability, T/C", "setting": "[28]", "result": 93.1, "unit": "%"},
      {"measurement": "viability, T/C", "setting": "[29]", "result": 50.8, "unit": "%"},
      {"measurement": "viability, T/C", "setting": "[30]", "result": 48.6, "unit": "%"},
      {"measurement": "viability, T/C", "setting": "[31]", "result": 103, "unit": "%"},
      {"measurement": "viability, T/C", "setting": "[32]", "result": 103, "unit": "%"},
      {"measurement": "viability, T/C", "setting": "[33]", "result": 105, "unit": "%"},
      {"measurement": "viability, T/C", "setting": "[34]", "result": 109, "unit": "%"},
      {"measurement": "viability, T/C", "setting": "[35]", "result": 57.4, "unit": "%"},
      {"measurement": "viability, T/C", "setting": "[36]", "result": 38, "unit": "%"}
    ]}
  ]
}
